The values below come from patent US5194432A, “Cephem compounds” (Fujisawa Pharmaceutical Co., Ltd., priority 1985, dated 1993).

Structures are written as SMILES. ≈ marks a conversion by molar mass, not a printed value.

Common to all, as to format: cell-based
One experiment has as its system P. vulgaris IAM1025. Nature of the experiment: In vitro antibacterial activity, two-fold agar-plate dilution method (MIC), P. vulgaris IAM1025. As to conditions: Proteus vulgaris, heart infusion agar, 10^6 viable cells per ml, 37° C., 20 hours, read-out: MIC (minimal inhibitory concentration). Here is the method:
(§1) In vitro antibacterial activity was determined by the two-fold agar-plate dilution method as described below.
(§2) One loopful of an overnight culture of each test strain in Trypticase-soy broth (10^6 viable cells per ml) was streaked on heart infusion agar (HI-agar) containing graded concentrations of representative test compound, and the minimal inhibitory concentration (MIC) was expressed in terms of μg/ml after incubation at 37° C. for 20 hours.

Another experiment relates to P. mirabilis 1. Nature of the experiment: In vitro antibacterial activity, two-fold agar-plate dilution method (MIC), P. mirabilis 1. To be noted: Proteus mirabilis, heart infusion agar, 10^6 viable cells per ml, 37° C., 20 hours, read-out: MIC (minimal inhibitory concentration). Here is the method:
as §1, §2

The test system of another experiment is E. coli 31. The experiment is described as follows: In vitro antibacterial activity, two-fold agar-plate dilution method (MIC), E. coli 31. To be noted: Escherichia coli, heart infusion agar, 10^6 viable cells per ml, 37° C., 20 hours, read-out: MIC (minimal inhibitory concentration). On the procedure: as §1, §2

Regarding `CO/N=C(\C(=O)N[C@@H]1C(=O)N2C(C(=O)[O-])=C(C[n+]3cc(C)c(N)n3C)CS[C@H]12)c1csc(N)n1` [Compound C, 7β-[2-(2-Aminothiazol-4-yl)-2-methoxyiminoacetamido]-3-(3-amino-2,4-dimethyl-1-pyrazolio)methyl-3-cephem-4-carboxylate (syn isomer)], the MIC is at most 0.025 µg/mL in the experiment on P. vulgaris IAM1025, 0.05 µg/mL (≈ 0.0987 µM) with P. mirabilis 1 and at most 0.025 µg/mL with E. coli 31.
For the compound `Cn1ccc[n+]1CC1=C(C(=O)[O-])N2C(=O)[C@@H](NC(=O)/C(=N\OC3C=CCC3)c3csc(N)n3)[C@H]2SC1` (stereo partly drawn) [Compound B, 7β-[2-(2-Aminothiazol-4-yl)-2-(2-cyclopenten-1-yloxyimino)acetamido]-3-(2-methyl-1-pyrazolio)methyl-3-cephem-4-carboxylate (syn isomer)], the MIC was 0.05 µg/mL (≈ 0.0944 µM) in the experiment with P. vulgaris IAM1025, 0.2 µg/mL (≈ 0.378 µM) in the experiment with P. mirabilis 1 and 0.05 µg/mL (≈ 0.0944 µM) with E. coli 31.
Regarding `Cc1c[n+](CC2=C(C(=O)[O-])N3C(=O)[C@@H](NC(=O)/C(=N\OC(F)F)c4csc(N)n4)[C@H]3SC2)n(C)c1N` [Compound D, 7β-[2-(2-Aminothiazol-4-yl)-2-(difluoromethoxyimino)acetamido]-3-(3-amino-2,4-dimethyl-1-pyrazolio)methyl-3-cephem-4-carboxylate (syn isomer)], the MIC with P. vulgaris IAM1025 was at most 0.025 µg/mL; with P. mirabilis 1 it was 0.05 µg/mL (≈ 0.0922 µM); in the experiment with E. coli 31, at most 0.025 µg/mL.
For the compound `Cn1ccc[n+]1CC1=C(C(=O)[O-])N2C(=O)[C@@H](NC(=O)/C(=N\OC(F)F)c3csc(N)n3)[C@H]2SC1` [Compound A, 7β-[2-(2-Aminothiazol-4-yl)-2-(difluoromethoxyimino)acetamido]-3-(2-methyl-1-pyrazolio)methyl-3-cephem-4-carboxylate (syn isomer)], the MIC is 0.05 µg/mL (≈ 0.0974 µM) with P. vulgaris IAM1025, 0.05 µg/mL (≈ 0.0974 µM) in the experiment with P. mirabilis 1 and under 0.025 µg/mL with E. coli 31.
